Assay results reported in patent publication US20190284192A1, “NITROGENOUS MACROCYCLIC COMPOUND, PREPARATION METHOD THEREFOR, PHARMACEUTICAL COMPOSITION AND APPLICATION THEREOF” (LUOXIN PHARMACEUTICAL (SHANGHAI) CO., LTD., priority 2016, published 2019).
Where “and” joins values, the source holds several entries; their conditions need not be identical. Equal entries are not always repeated.

How the values were obtained:
[1] = Metabolic stability in human liver microsomes; format: in vitro ADME; details: human liver microsomes 0.5 mg/mL, NADPH, 37° C.; for CLint scaled at 1 µM: pH 7.4, read-out: HLM_CLint
Procedure, shortened: (§1)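 Compound at 1.5 μM in liver microsome dosing solution (pH 7.4 potassium phosphate, 1.0 mM EDTA) was incubated at 37 °C with NADPH and sampled at 0, 5, 15, 30, 45 min in duplicate, quenched with ACN. LC-MS/MS remaining compound fit to first-order decay; T1/2 = 0.693/K.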

[2] = tested on: MV-4-11 subcutaneous xenograft tumor; test: Anti-tumor efficacy in vivo, MV-4-11 subcutaneous xenograft model; design: species or system BALB/c nude mice; details: for anti-tumor effect on the MV-4-11 cell xenograft tumor mouse model: ABBV-075 3 mg/kg, GSK762 15 mg/kg, 4009 10 mg/kg; for anti-tumor effect on the MV-4-11 cell xenograft tumor mouse model / T/C % / Average tumor weight, 15th day of treatement / Average tumor volume, Treatement starts 1st day / Tumor volume TGI (%) 4th day / Tumor volume TGI (%) 6th day / Tumor volume TGI (%) 8th day / Tumor volume TGI (%) 11th day / Tumor volume TGI (%) 13th day / Tumor volume TGI (%) 15th day / Average tumor volume, Treatement ends 15th day: intragastric QD*14; for T/C %: TRTV/CRTV; for T/C % / P, tumor volume difference between the control group and the administrated group / Average tumor weight, 15th day of treatement / Average tumor volume, Treatement starts 1st day / Tumor volume TGI (%) 4th day / Tumor volume TGI (%) 6th day / Tumor volume TGI (%) 8th day / Tumor volume TGI (%) 11th day / Tumor volume TGI (%) 13th day / Tumor volume TGI (%) 15th day / Average tumor volume, Treatement ends 15th day: ABBV-075 3, GSK762 15, 4009 10 mg/kg; for T/C % / Tumor volume TGI (%) 15th day / Average tumor volume, Treatement ends 15th day: 15th day; for P, tumor volume difference between the control group and the administrated group: Two-way Anova Bonferroni post-test; for Average tumor volume, Treatement ends 15th day: 10 mg/kg
Method: According to the growth of the cells, the treatment was passaged twice a week. When the cells are in the exponential growth phase, the cells are collected, counted, and inoculated.
Experimental protocol: 0.2 mL of cell suspension containing about 5×10^MV-4-11 cells (cell suspended in IMDM medium and added with 50% Matrigel) was inoculated subcutaneously into the right back of each mouse. Group administration was initiated when the average tumor volume reached approximately 136.94 mm^3 (day 15 post inoculation). Grouping method: Animals were weighed before dosing and tumor volume was measured. Grouping designed based on tumor volume.
The experimental indicator is to investigate whether tumor growth can be inhibited, delayed or cured. Tumor diameters were measured with vernier calipers three times a week. The formula for calculating tumor volume is: V=0.5×a×b^2, a and b represent the long and short diameters of the tumor, respectively. The antitumor effect of the compound was evaluated by T/C (%). T/C %=TRTV/CRTV×100% (TRTV: treatment group RTV; CRTV: negative comparative group RTV). The relative tumor volume RTV is calculated as RTV=Vt/V1. Where V1 is the measured tumor volume at the time of group administration (i.e., Day 1), and Vt is the tumor volume at each measurement.
The tumor volume and tumor size were analysed by statistical software. GraphPad Prism software was used for analyzation, p<0.05 is considered to have significant difference, p<0.01 is considered to have extremely significant difference.
Two-way Anova Bonferroni post-test is used to compare the tumor volume difference between the control group and the treatment group.

[3] = Metabolic stability in mouse liver microsomes; format: in vitro ADME; details: mouse liver microsomes 0.5 mg/mL, NADPH, 37° C.; for CLint scaled at 1 µM: pH 7.4, read-out: MLM_CLint
Procedure, shortened: as §1

BRD4 (BD2) = molecular target: T1, BRD4 (BD2) (Homo sapiens, UniProt O60885); test: BRD4 (BD2) bromodomain binding, HTRF; details: 2 h incubation at r.t.
T1 construct: Each member comprises two tandem bromodomains (BD1 and BD2) for recognizing the acetylated lysine residues

MV-4-11 cells = test: Inhibitory effect on MV-4-11 cells (CellTiter-Glo); format: cell-based; details: Homo sapiens, MV4-11; 72 hours, CellTiter-Glo; read-out: MV-4-11
Method: The 1st Day: Seed the Cells on the Plate
1. The cells were verified that they were in good conditions by observation under microscope;
2. The cells were transferred to a 15 mL centrifuge tube, after centrifuged at 1000 rpm for 5 min, the supernatant was discarded;
3. The complete medium (IMDM+10% FBS) was added, then blown and patted into single cell suspension, counted by Vi-cell cytometer, the cell suspension was adjusted to desired cell density by the complete medium.
4. The cells were inoculated into a 96 well plate, the cell number was 15000/well at 100 μL per well, 100 μL complete medium was added into the black control.
5. 37° C., 5% CO2 culture overnight.
The 2nd Day: Addition of the Drugs
1. 1000× Compound Plate Preparation
1.1. The test compound was prepared into 10 mM working solution by using DMSO. Then the STS was prepared into 2 mM working solution by using DMSO.
1.2. In the round bottom 96 wells plate, the column 2 of row A to H was added into 60 μL 10 mM test compound (or STS) working solution, columns 3-11 were added into 40 μL DMSO, 20 μL drug solution was pipetted from the column 2 to the column 3, blown and patted for a homogeneous mixture; then 20 μL solution was pipetted from the column 3 to the column 4, blown and patted for a homogeneous mixture, sequently, the drug was diluted by 3 times, 10 concentrations in total. The columns 1 and 12 were supplemented with 40 μL of DMSO.
2. Intermediate plate areparation
A sterile V-bottom 96 deep well plate was used and in each well, 495 μL FBS-free PRMI 1640 medium was added, then 5 μL of the diluted compound (or DMSO) in the 1000× compound plate was pipetted into corresponding position of the V-bottom 96 well plate, blown and patted evenly.
3.1. The cell plate was taken out from the incubator and was observed under microscope. The diluted compound or DMSO in the intermediate plate was added into the cell plate, 11 μL each well.
3.2. The cell was continued to be cultured at 37° C., 5% CO2 for 72 hours.
The 5th Day: CellTiter-Glo Detection of the Cell Activity
1. The CellTiter-Glo buffer and the reaction substrate were taken out from the refrigerator, after balanced to r.t., the buffer was poured into a brown bottle containing the substrate, the bottle was upside down to have the substrate powder sufficientaly dissolved.
2. The cell was observed under microscope; the cell plate was balanced to r.t.
3. The prepared CellTiter-Glo was added into the 96 well plate, at 100 μL/well.
4. The cell plate was placed on a shaker for 10 min, followed by standing at r.t. for 10 min.
5. A white seal film was attached to the bottom of the well plate, and the chemiluminescence signal of each well was detected by the Enspire microplate detector.
6. XLfit was used for data processing. Inhibition rate %=(d−c)/(d−b)×100, while d is the signal value of the DMSO treated group, c is the signal value of the compound treated group, b is signal value of the blank control that only containing medium and DMSO without cells. The data was fitted using the f(x)205[fit=(A+((B−A)/(1+((C/x)^∧D))))] equation in the XLfit software.

[4] = Body weight of MV-4-11 tumor-bearing mice during treatment; format: in vivo; details: for Average RCBW, Treatment end Day 15: relative body weight change vs Day 1; for Average RCBW, Treatment end Day 15 / Average body weight, Treatment end Day 15 / Average body weight, Treatment start Day 1: intragastric QD*14, ABBV-075 3, GSK762 15, 4009 10 mg/kg; for Average body weight, Treatment end Day 15 / Average body weight, Treatment start Day 1: x ± SEM
Method: The preparation and any revision of this experimental protocol are carried out in accordance with the evaluation criteria of the “Institute for Animal Care and Use (IACUC)” of Shanghai Chempartner Chemical Research Co., Ltd. The use and welfare of laboratory animals are carried out in accordance with the provisions of the Association for Assessment and Accreditation of Laboratory Animal Care (AAALAC). Animals are monitored daily for health and death. Routine examinations include observations of the effects of the test substance and the drug on the daily behavior of the animal such as behavioral activities, intake of water and feeds, weight change (three weights measured weekly), appearance signs or other anormal circumstance. The number of animal deaths and side effects in the group were recorded based on the number of animals in each group.

Structure (SMILES)	HLM_T1/2 [1]	CLint scaled at 1 µM [1]	anti-tumor effect on the MV-4-11 cell xenograft tumor mouse model [2]	T/C % [2]	P, tumor volume difference between the control group and the administrated group ([2]; day 1 after administration)	P, tumor volume difference between the control group and the administrated group ([2]; day 4 after administration)	P, tumor volume difference between the control group and the administrated group ([2]; day 6 after administration)	P, tumor volume difference between the control group and the administrated group ([2]; day 8 after administration)	P, tumor volume difference between the control group and the administrated group ([2]; day 11 after administration)	P, tumor volume difference between the control group and the administrated group ([2]; day 13 after administration)	P, tumor volume difference between the control group and the administrated group ([2]; day 15 after administration)	Average tumor weight, 15th day of treatement [2]	Average tumor volume, Treatement starts 1st day [2]	Tumor volume TGI (%) 4th day [2]	Tumor volume TGI (%) 6th day [2]	Tumor volume TGI (%) 8th day [2]	Tumor volume TGI (%) 11th day [2]	MLM_T1/2 [3]	IC50 (BRD4 (BD2))	IC50 (MV-4-11 cells)	also measured
CCS(=O)(=O)Nc1ccc(Oc2ccc(F)cc2F)c(-c2cn(C)c(=O)c3[nH]ccc23)c1 [ABBV-075]	1465.60 min	1.19 mL/min/kg	significant anti-tumor effect	34.24%	P > 0.05	P > 0.05	P > 0.05	P > 0.05	P < 0.01 (***)	P < 0.01 (***)	P < 0.01 (***)	0.314 ± 0.05 g	136.45 ± 14.05 mm^3	97.12%	69.45%	73.8%	72.41%	81.11 min	1 nM	7 nM	Tumor volume TGI (%) 13th day [2]: 75.81%; Tumor volume TGI (%) 15th day [2]: 75.56%; Average tumor volume, Treatement ends 15th day [2]: 346.72 mm^3 and 346.72 ± 68.96 mm^3; CLint scaled at 1 µM [3]: 67.3 mL/min/kg; Average RCBW, Treatment end Day 15 [4]: 2.72%; Average body weight, Treatment end Day 15 [4]: 21.95 ± 0.36 g; Average body weight, Treatment start Day 1 [4]: 21.36 ± 0.21 g
CCS(=O)(=O)Cc1ccc2c(c1)-c1cn(C)c(=O)cc1CN=C2c1ccc(F)cc1 [Compound 4009, 7-(4-fluorophenyl)-2-methyl-10-(ethylsulfonemethyl)-2H-benzo[c]pyrido[3,4-e]azepin-3(5H)-ketone]	471.41 min	3.69 mL/min/kg	significant anti-tumor effect	30.13%	P > 0.05	P > 0.05	P > 0.05	P > 0.05	P < 0.001 (***)	P < 0.001 (***)	P < 0.001 (***)	0.276 ± 0.08 g	136.78 ± 14.97 mm^3	81.27%	75.63%	79.64%	83.17%	588.07 min	5 nM	53 nM	Tumor volume TGI (%) 13th day [2]: 81.77%; Tumor volume TGI (%) 15th day [2]: 81.16%; Average tumor volume, Treatement ends 15th day [2]: 305.80 mm^3 and 305.80 ± 81.48 mm^3; CLint scaled at 1 µM [3]: 9.28 mL/min/kg; body weight and condition of mice during the entire administration period ([4]; 4009 10 mg/kg intragastric QD*14): did not decrease in body weight; Average RCBW, Treatment end Day 15 [4]: 2.82%; Average body weight, Treatment end Day 15 [4]: 21.88 ± 0.73 g; Average body weight, Treatment start Day 1 [4]: 21.26 ± 0.38 g
CCS(=O)(=O)Cc1ccc2c(c1)-c1cn(C)c(=O)cc1[C@H](C)N=C2c1ccc(F)cc1 [Compound 4026, (S)-10-((ethylsulfone)methyl)-7-(4-fluorophenyl)-2,5-dimethyl-2,5-dihydro-3H-benzo[c]pyrido[3,4-e]azepin-3-ketone]	∞	–	–	–	–	–	–	–	–	–	–	–	–	–	–	–	–	∞	1 nM	4 nM	–
